For data set [1], the target named is T1, Vitamin D3 receptor (Homo sapiens, UniProt P11473).
T1 sequence (P11473 whole entry): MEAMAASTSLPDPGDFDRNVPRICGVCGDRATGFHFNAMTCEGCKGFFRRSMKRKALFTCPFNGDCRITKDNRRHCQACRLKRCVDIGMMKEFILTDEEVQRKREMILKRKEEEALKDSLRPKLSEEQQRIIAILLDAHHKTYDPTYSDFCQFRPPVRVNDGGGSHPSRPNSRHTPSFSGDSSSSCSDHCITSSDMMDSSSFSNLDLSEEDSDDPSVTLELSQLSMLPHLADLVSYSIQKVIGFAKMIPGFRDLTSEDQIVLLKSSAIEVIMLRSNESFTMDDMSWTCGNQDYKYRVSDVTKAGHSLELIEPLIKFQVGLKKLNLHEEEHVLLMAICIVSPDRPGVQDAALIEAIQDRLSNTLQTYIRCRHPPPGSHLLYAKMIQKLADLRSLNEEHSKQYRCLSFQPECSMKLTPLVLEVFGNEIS
The data set can be described thus: Antagonist activity at VDR-LBD (unknown origin) assessed as inhibition of LG190178-induced recruitment of alexa fluor 647-labeled SRC2-3 after 30 mins by fluorescence polarization assay.

Data set [2] deals with T2, Peroxisome proliferator-activated receptor delta (Homo sapiens, UniProt Q03181).
T2 sequence (Q03181 whole entry): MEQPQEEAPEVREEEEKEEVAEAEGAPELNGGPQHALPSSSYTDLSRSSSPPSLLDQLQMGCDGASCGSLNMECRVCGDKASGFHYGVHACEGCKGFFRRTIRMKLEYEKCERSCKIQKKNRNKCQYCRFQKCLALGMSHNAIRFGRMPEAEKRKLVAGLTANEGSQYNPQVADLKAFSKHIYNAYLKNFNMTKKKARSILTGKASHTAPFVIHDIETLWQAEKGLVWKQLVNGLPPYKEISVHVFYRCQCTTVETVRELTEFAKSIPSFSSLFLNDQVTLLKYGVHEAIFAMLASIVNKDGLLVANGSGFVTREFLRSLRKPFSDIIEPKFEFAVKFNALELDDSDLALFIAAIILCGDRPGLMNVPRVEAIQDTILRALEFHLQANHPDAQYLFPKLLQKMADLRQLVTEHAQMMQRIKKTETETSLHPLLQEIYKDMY
In words: Transactivation of CMV-fused PPARdelta-LBD-GAL4-DBD (unknown origin) expressed in HEK293T cells by luciferase reporter gene assay. The class given is cell-based. As to conditions: for pEC50: read-out: EC50; call rule not given here.

Data set [3] concerns the target T1, Vitamin D3 receptor. The data set can be described thus: Antagonist activity at CMV-fused VDR (unknown origin) expressed in HEK293T cells assessed as reduction in 24-hydroxylase promoter mediated transcriptional activity by luciferase reporter gene assay. The class given is cell-based. As to conditions: for pIC50: read-out: IC50.
The subject of data set [4] is HEK-293T. In words: Cytotoxicity against HEK293T cells assessed as decrease in cell viability at 100 uM after 18 hrs by Cell Titer-Glo based luminescence assay relative to control. As to conditions: human.
The target of data set [5] is T1, Vitamin D3 receptor. In words: Agonist activity at VDR-LBD (unknown origin) assessed as recruitment of alexa fluor 647-labeled SRC2-3 after 30 mins by fluorescence polarization assay.
In data set [6] the target is T1, Vitamin D3 receptor. The data set can be described thus: Antagonist activity at VP16-fused VDR-LBD (unknown origin) expressed in HEK293T cells assessed as inhibition of ligand-induced GAL4-fused SRC1 coactivator recruitment by two-hybrid luciferase reporter gene assay. It is filed as cell-based.
Data set [7] in a line: Aqueous solubility of the compound in DMSO at 500 uM by filter based assay. It is filed as physicochemical.
In data set [8] the target is T3, Peroxisome proliferator-activated receptor delta (Homo sapiens) (UniProt Q03181).
T3 sequence (whole entry): T2 sequence (Q03181 whole entry)
The data set can be described thus: Transactivation of CMV-fused PPARdelta-LBD-GAL4-DBD (unknown origin) expressed in HEK293T cells at 100 uM by luciferase reporter gene assay relative to GW0742. It is filed as cell-based.

pEC50, pIC50: −log10 of the molar value. Values after ≈ are worked out from the molar mass of the structure shown. A value given as a limit tells only on which side of the number the result lay.

For `COC(=O)CCc1ccc(OCc2oc(-c3ccccc3OC)nc2C)cc1`, the IC50 entry in data set [1] is reported as “Not Active”. Also, the EC50 entry in data set [2] and in data set [5] was “Not Active” in each case. In addition, the results for the pIC50 in data set [3] and in data set [6] were 5.00 and 4.87, respectively. The Activity in data set [4] worked out at 79.9%. This compound also showed a kinetic solubility at 500 µM in data set [7] of 62.6 µM (≈ 23.9 µg/mL).
For the compound `COc1ccccc1-c1nc(C)c(COc2cccc(C(=O)O)c2)o1`, the IC50 result in data set [1] and in data set [3] was “Not Active” throughout. Further, the pEC50 in data set [2] was 6.06. Also, the Activity entry in data set [4] is “Non-Toxic”; in data set [8], 22%. Besides, the EC50 result in data set [5] was “Not Active”. The pIC50 in data set [6] was under 4.00. This compound had a kinetic solubility at 500 µM in data set [7] of 423 µM (≈ 144 µg/mL).
For the compound `COc1cccc(-c2nc(C)c(COc3ccc(C(=O)O)cc3)o2)c1`, the IC50 result in data set [1] was “Not Active”. The pEC50 in data set [2] was 5.59. In addition, the pIC50 in data set [3] is under 4.00; in data set [6] it was under 4.10. For the same compound, the Activity is 27.2% in data set [4] and 2.1% in data set [8]. The EC50 entry in data set [5] was “Not Active”. Further, the kinetic solubility at 500 µM in data set [7] turned out to be 457 µM (≈ 155 µg/mL).
With `COc1ccccc1-c1nc(C)c(COc2ccc(CCC(=O)O)cc2)o1`, the IC50 entry in data set [1] was “Not Active”. The pEC50 in data set [2] is 5.34. Besides, the pIC50 in data set [3] is under 4.10; in data set [6], under 4.00. Besides, the Activity in data set [4] amounted to 2.1%; in data set [8] it was 30%. Moreover, the EC50 result in data set [5] was “Not Active”. The same compound displayed a solubility (kinetic) at 500 µM in data set [7] of 400 µM (≈ 147 µg/mL).
For `COC(=O)c1ccccc1OCc1oc(-c2ccccc2OC)nc1C`, in data set [1], the IC50 entry is listed as “Not Active”. In addition, the EC50 entry in data set [2] and in data set [5] was “Not Active” in each case. Further, the pIC50 is 5.49 in data set [3] and 4.69 in data set [6]. Besides, the Activity in data set [4] was found to be 54.1%. The compound further displayed a solubility (kinetic) at 500 µM in data set [7] of 185 µM (≈ 65.5 µg/mL).
On to `COC(=O)c1ccccc1OCc1oc(-c2cccc(OC)c2)nc1C`, for which, in data set [1], the IC50 result is “Not Active”. In addition, the EC50 entry in data set [2] and in data set [5] was “Not Active” each time. Moreover, the pIC50 is 5.17 in data set [3] and 4.81 in data set [6]. Moreover, the Activity in data set [4] was determined as 94.6%. The compound also showed a kinetic solubility at 500 µM in data set [7] of 52.8 µM (≈ 18.7 µg/mL).
`COc1ccccc1-c1nc(C)c(COc2ccc(CC(=O)O)cc2)o1`: the IC50 result in data set [1] and in data set [3] was “Not Active” in each case. Besides, in data set [2], the pEC50 was 4.96. Besides, the values for the Activity result in data set [4] and in data set [8] were “Non-Toxic” and 48%, respectively. Besides, the EC50 entry in data set [5] is given as “Not Active”. For the same compound, the pIC50 in data set [6] was under 4.10. The compound also came in with a solubility (kinetic) at 500 µM in data set [7] of 436 µM (≈ 154 µg/mL).
As to `COC(=O)c1cccc(OCc2oc(-c3cccc(OC)c3)nc2C)c1`, the IC50 result in data set [1] is given as “Not Active”. For the same compound, the EC50 result in data set [2] and in data set [5] was “Not Active” throughout. Also, the pIC50 in data set [3] was 5.25; in data set [6], 4.77. Besides, in data set [4], the Activity was determined as 59.3%. For the same compound, the solubility (kinetic) at 500 µM in data set [7] stood at 24.1 µM (≈ 8.52 µg/mL).
For the compound `COc1cccc(-c2nc(C)c(COc3ccccc3C(=O)O)o2)c1`, the IC50 entry in data set [1] is recorded as “Not Active”. For the same compound, the EC50 entry in data set [2] and in data set [5] was “Not Active” each time. In addition, the results for the pIC50 in data set [3] and in data set [6] were 4.39 and under 4.48, respectively. Further, the Activity in data set [4] came out at 37.3%. The kinetic solubility at 500 µM in data set [7] was 264 µM (≈ 89.6 µg/mL).
`COC(=O)CCc1ccc(OCc2oc(-c3cccc(OC)c3)nc2C)cc1`: the IC50 entry in data set [1] is recorded as “Not Active”. Besides, the pEC50 in data set [2] is 5.96. For the same compound, the negative-log IC50 (pIC50) in data set [3] was 5.54; in data set [6], 5.17. Besides, the Activity in data set [4] stood at 67.6%; in data set [8], 7.7%. Moreover, in data set [5], the EC50 result was “Not Active”. The same compound came in with a solubility (kinetic) at 500 µM in data set [7] of 38.2 µM (≈ 14.6 µg/mL).
On to `COC(=O)c1ccc(OCc2oc(-c3ccccc3OC)nc2C)cc1`, for which the IC50 entry in data set [1] is listed as “Not Active”. The EC50 entry in data set [2] and in data set [5] was “Not Active” throughout. The pIC50 in data set [3] is 5.31; in data set [6], 4.75. The Activity in data set [4] was 81.5%. The same compound gave a solubility (kinetic) at 500 µM in data set [7] of 62.6 µM (≈ 22.1 µg/mL).
As for `COc1ccccc1-c1nc(C)c(COc2ccccc2C(=O)O)o1`, the IC50 entry in data set [1] and in data set [3] was “Not Active” in each case. In addition, the EC50 result in data set [2] and in data set [5] was “Not Active” throughout. Moreover, the Activity in data set [4] was 4.1%. In addition, in data set [6], the pIC50 is under 4.10. Besides, in data set [7], the solubility (kinetic) at 500 µM is 402 µM (≈ 136 µg/mL).
Turning to `COc1cccc(-c2nc(C)c(COc3ccc(CC(=O)O)cc3)o2)c1`, the IC50 result in data set [1] is recorded as “Not Active”. Also, in data set [2], the pEC50 was 5.74. In addition, the figures for the pIC50 in data set [3] and in data set [6] were 5.44 and 4.56, respectively. Further, the Activity turned out to be 34.5% in data set [4] and 8.5% in data set [8]. Besides, the EC50 entry in data set [5] is reported as “Not Active”. This compound had a kinetic solubility at 500 µM in data set [7] of 410 µM (≈ 145 µg/mL).
Turning to `COc1cccc(-c2nc(C)c(COc3cccc(C(=O)O)c3)o2)c1`, the IC50 result in data set [1] was “Not Active”. Besides, the EC50 result in data set [2] and in data set [5] was “Not Active” throughout. The pIC50 in data set [3] and in data set [6] was 4.48 in each case. The Activity in data set [4] came to 23.9%. Also, the solubility (kinetic) at 500 µM in data set [7] came out at 498 µM (≈ 169 µg/mL).
As for `COc1ccccc1-c1nc(C)c(COc2ccc(C(=O)O)cc2)o1`, the IC50 entry in data set [1] and in data set [3] was “Not Active” each time. Further, the pEC50 in data set [2] was 5.06. Besides, the figures for the Activity result in data set [4] and in data set [8] were “Non-Toxic” and 16%, respectively. Also, the EC50 result in data set [5] is given as “Not Active”. The pIC50 in data set [6] is under 4.10. In addition, the kinetic solubility at 500 µM in data set [7] was 460 µM (≈ 156 µg/mL).
`COc1cccc(-c2nc(C)c(COc3ccc(CCC(=O)O)cc3)o2)c1`: in data set [1], the IC50 result was “Not Active”. In addition, in data set [2], the pEC50 was 5.85. In addition, the values for the pIC50 in data set [3] and in data set [6] were 5.47 and 4.57, respectively. The results for the Activity in data set [4] and in data set [8] were 41.2% and 13.7%, respectively. The EC50 result in data set [5] is recorded as “Not Active”. The same compound had a kinetic solubility at 500 µM in data set [7] of 234 µM (≈ 86.1 µg/mL).

These data come from ChEMBL document CHEMBL4184110 (Bioorg Med Chem Lett, 2018).
